In patent US9644011B2 (priority 2005, dated 2017):

How the values were obtained:
[1] = test system: mouse sciatic nerve; settings: cited from earlier work
[2] = test system: muscle strength of mice; settings: mouse, in vivo

Row | Compound | concentration necessary for similar inhibitory effect on mouse sciatic nerve [1] | time to decrease of 50% of the relative strength [2] [min]
1 | CCN(CC)CC(=O)Nc1c(C)cccc1C [lidocaine] | Millimolar concentrations | 
2 | CCN(CC)CCOC(=O)c1ccc(N)cc1 [procaine] |  | ~10
